pKi: −log10 of the molar value.
Assays:
[1] = biological target: Serine/threonine-protein kinase Nek4 (Homo sapiens) (UniProt P51957)
[2] = test system: Epidermal growth factor receptor (Homo sapiens), P00533 [L858R]
[3] = biological target: Tyrosine-protein kinase Fgr (Homo sapiens) (UniProt P09769)
[4] = biological target: Mitogen-activated protein kinase 14 (Homo sapiens) (UniProt Q16539)
[5] = biological target: Dual specificity protein kinase TTK (Homo sapiens) (UniProt P33981)
[6] = biological target: Delta-type opioid receptor (Homo sapiens) (UniProt P41143); details: Compound concentration 10.0 uM
[7] = biological target: Serine/threonine-protein kinase Nek2 (Homo sapiens) (UniProt P51955)
[8] = biological target: Muscarinic acetylcholine receptor M3 (Homo sapiens) (UniProt P20309); details: Compound concentration 10.0 uM
[9] = test system: Tyrosine-protein kinase ABL1 (Homo sapiens), P00519 [T315I]
[10] = biological target: Serine/threonine-protein kinase 10 (Homo sapiens) (UniProt O94804)
[11] = biological target: Ribosomal protein S6 kinase beta-1 (Homo sapiens) (UniProt P23443)
[12] = biological target: Myosin light chain kinase 2, skeletal/cardiac muscle (Homo sapiens) (UniProt Q9H1R3)
[13] = biological target: Leukocyte tyrosine kinase receptor (Homo sapiens) (UniProt P29376)
[14] = biological target: Serine/threonine-protein kinase tousled-like 1 (Homo sapiens) (UniProt Q9UKI8)
[15] = biological target: Protein-tyrosine kinase 6 (Homo sapiens) (UniProt Q13882)
[16] = test system: Phosphatidylinositol 4,5-bisphosphate 3-kinase catalytic subunit alpha isoform (Homo sapiens), P42336 [C420R]
[17] = biological target: Serine/threonine-protein kinase NLK (Homo sapiens) (UniProt Q9UBE8)
[18] = biological target: Platelet-derived growth factor receptor beta (Homo sapiens) (UniProt P09619)
[19] = biological target: Homeodomain-interacting protein kinase 2 (Homo sapiens) (UniProt Q9H2X6)
[20] = test system: Receptor-type tyrosine-protein kinase FLT3 (Homo sapiens), P36888 [UNDEFINED MUTATION]
[21] = biological target: D(2) dopamine receptor (Homo sapiens) (UniProt P14416); details: Compound concentration 10.0 uM
[22] = biological target: Dual specificity protein kinase CLK4 (Homo sapiens) (UniProt Q9HAZ1)
[23] = biological target: Sigma intracellular receptor 2 (Homo sapiens, UniProt Q5BJF2); assay: GPCRScan assay: inhibition of Sigma 2; parameters: radioligand conc. used [nm] 5.0, parental cells HEKT; details: for pKi: read-out: Ki
[24] = biological target: Vascular endothelial growth factor receptor 1 (Homo sapiens) (UniProt P17948)
[25] = test system: Tyrosine-protein kinase ABL1 (Homo sapiens), P00519 [F317L]
[26] = biological target: Tyrosine-protein kinase JAK1 (Homo sapiens) (UniProt P23458)
[27] = biological target: Mitogen-activated protein kinase kinase kinase 11 (Homo sapiens) (UniProt Q16584)
[28] = biological target: Testis-specific serine/threonine-protein kinase 3 (Homo sapiens) (UniProt Q96PN8)
[29] = test system: Epidermal growth factor receptor (Homo sapiens), P00533 [L861Q]
[30] = biological target: Receptor-interacting serine/threonine-protein kinase 4 (Homo sapiens) (UniProt P57078)
[31] = biological target: Serine/threonine-protein kinase WNK2 (Homo sapiens) (UniProt Q9Y3S1)
[32] = biological target: Ribosomal protein S6 kinase alpha-6 (Homo sapiens) (UniProt Q9UK32)
[33] = test system: Epidermal growth factor receptor (Homo sapiens), P00533 [UNDEFINED MUTATION]
[34] = biological target: Mitogen-activated protein kinase 13 (Homo sapiens) (UniProt O15264)
[35] = biological target: Ribosomal protein S6 kinase alpha-4 (Homo sapiens) (UniProt O75676)
[36] = biological target: Muscarinic acetylcholine receptor M4 (Homo sapiens) (UniProt P08173); details: Compound concentration 10.0 uM
[37] = biological target: Serine/threonine-protein kinase 17A (Homo sapiens) (UniProt Q9UEE5)
[38] = test system: Mast/stem cell growth factor receptor Kit (Homo sapiens), P10721 [D816V]
[39] = test system: Tyrosine-protein kinase ABL1 (Homo sapiens), P00519 [T315I]; remark: listed apart in the source
[40] = biological target: Ephrin type-A receptor 1 (Homo sapiens) (UniProt P21709)
[41] = biological target: Serine/threonine-protein kinase D3 (Homo sapiens) (UniProt O94806)
[42] = biological target: 5'-AMP-activated protein kinase catalytic subunit alpha-1 (Homo sapiens) (UniProt Q13131)
[43] = biological target: Serine/threonine-protein kinase PAK 5 (Homo sapiens) (UniProt Q9P286)
[44] = biological target: SRSF protein kinase 3 (Homo sapiens) (UniProt Q9UPE1)
[45] = test system: Proto-oncogene tyrosine-protein kinase receptor Ret (Homo sapiens), P07949 [V804L]
[46] = Compound concentration 1000.0 nM
[47] = Compound concentration 100.0 nM

Sequence of Sigma intracellular receptor 2 (Q5BJF2 whole entry): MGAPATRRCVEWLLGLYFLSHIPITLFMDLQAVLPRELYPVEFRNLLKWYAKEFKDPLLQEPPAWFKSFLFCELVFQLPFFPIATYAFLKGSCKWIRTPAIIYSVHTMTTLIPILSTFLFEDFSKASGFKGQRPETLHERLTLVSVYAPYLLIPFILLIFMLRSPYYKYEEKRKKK
Sequence of Ephrin type-A receptor 1 (Homo sapiens) (P21709 whole entry): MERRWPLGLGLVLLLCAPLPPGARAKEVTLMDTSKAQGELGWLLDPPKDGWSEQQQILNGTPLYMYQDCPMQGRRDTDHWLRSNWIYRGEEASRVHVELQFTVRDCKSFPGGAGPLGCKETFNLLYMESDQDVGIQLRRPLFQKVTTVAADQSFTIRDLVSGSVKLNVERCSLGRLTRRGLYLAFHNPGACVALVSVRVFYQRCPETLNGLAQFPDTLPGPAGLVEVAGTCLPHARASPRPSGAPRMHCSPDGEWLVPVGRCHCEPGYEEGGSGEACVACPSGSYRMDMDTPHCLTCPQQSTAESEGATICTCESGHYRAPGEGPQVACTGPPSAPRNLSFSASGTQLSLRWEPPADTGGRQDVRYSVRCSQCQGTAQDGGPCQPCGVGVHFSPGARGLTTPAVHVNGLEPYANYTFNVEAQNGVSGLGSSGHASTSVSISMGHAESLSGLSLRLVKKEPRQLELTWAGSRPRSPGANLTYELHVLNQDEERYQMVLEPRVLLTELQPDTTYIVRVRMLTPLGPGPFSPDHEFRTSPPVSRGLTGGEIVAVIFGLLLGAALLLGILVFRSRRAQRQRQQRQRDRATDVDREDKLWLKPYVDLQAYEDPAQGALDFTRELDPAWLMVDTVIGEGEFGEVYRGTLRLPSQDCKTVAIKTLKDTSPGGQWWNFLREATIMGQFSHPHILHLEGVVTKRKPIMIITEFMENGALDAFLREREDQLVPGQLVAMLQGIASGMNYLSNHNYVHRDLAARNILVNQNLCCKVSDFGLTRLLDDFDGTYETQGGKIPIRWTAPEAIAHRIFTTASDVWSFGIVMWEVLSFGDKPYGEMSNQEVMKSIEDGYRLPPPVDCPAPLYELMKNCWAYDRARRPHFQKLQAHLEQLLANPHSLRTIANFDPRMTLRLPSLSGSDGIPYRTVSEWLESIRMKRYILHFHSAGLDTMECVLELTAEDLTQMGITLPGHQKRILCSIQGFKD
Sequence of Serine/threonine-protein kinase 17A (Homo sapiens) (Q9UEE5 whole entry): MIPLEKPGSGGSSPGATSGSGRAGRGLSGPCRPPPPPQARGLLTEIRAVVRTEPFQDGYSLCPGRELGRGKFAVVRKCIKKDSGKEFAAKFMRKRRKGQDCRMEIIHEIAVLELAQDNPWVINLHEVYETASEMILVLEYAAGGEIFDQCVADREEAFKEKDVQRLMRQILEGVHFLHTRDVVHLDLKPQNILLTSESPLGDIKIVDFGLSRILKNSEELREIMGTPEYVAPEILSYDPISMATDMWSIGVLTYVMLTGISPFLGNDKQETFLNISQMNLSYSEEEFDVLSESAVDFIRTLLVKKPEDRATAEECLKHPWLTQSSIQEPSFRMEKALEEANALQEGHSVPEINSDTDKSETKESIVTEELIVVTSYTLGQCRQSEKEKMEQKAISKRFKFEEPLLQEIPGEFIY
Sequence of Ribosomal protein S6 kinase beta-1 (Homo sapiens) (P23443 whole entry, looked up): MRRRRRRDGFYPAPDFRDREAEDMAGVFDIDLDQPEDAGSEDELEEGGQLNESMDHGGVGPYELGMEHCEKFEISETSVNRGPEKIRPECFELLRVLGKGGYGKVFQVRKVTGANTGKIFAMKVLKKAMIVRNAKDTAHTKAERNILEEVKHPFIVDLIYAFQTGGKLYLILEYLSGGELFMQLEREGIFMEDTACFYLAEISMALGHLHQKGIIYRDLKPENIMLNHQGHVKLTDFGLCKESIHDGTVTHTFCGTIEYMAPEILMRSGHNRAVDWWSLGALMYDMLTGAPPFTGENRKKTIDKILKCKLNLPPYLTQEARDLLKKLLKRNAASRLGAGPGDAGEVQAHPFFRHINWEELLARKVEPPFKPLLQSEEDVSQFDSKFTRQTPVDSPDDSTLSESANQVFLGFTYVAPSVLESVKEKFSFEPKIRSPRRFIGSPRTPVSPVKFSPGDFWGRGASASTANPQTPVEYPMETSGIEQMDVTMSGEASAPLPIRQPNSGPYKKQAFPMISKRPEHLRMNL
Sequence of Phosphatidylinositol 4,5-bisphosphate 3-kinase catalytic subunit alpha isoform (Homo sapiens), P42336 [C420R] (P42336 whole entry C420R, canonical isoform): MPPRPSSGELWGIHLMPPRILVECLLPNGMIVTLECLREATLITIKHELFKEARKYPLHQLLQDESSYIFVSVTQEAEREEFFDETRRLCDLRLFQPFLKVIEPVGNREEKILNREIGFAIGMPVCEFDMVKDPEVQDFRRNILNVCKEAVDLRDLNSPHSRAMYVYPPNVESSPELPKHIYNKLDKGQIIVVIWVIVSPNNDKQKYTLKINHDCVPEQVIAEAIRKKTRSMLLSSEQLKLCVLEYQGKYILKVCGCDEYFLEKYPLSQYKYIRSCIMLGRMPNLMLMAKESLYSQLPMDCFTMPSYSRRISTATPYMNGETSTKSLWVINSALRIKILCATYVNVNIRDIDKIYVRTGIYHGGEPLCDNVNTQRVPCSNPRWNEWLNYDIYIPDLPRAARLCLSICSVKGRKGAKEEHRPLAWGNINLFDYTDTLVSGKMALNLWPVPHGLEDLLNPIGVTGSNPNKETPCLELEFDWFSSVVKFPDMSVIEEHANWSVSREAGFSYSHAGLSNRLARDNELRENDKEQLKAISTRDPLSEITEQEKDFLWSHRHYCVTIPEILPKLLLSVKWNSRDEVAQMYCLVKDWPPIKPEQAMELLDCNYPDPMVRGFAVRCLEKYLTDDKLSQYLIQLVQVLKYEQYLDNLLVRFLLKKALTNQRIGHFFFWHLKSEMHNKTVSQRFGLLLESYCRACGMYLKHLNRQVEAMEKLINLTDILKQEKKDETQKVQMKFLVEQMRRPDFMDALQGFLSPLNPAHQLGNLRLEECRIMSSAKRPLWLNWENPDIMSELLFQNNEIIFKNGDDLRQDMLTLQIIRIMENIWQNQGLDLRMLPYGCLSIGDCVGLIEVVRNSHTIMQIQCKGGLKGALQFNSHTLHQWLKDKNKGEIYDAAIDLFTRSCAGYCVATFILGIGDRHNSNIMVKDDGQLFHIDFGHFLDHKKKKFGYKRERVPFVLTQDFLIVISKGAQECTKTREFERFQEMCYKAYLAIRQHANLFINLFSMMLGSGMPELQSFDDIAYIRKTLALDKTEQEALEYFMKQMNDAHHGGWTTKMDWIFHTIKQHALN
Sequence of Delta-type opioid receptor (Homo sapiens) (P41143 whole entry): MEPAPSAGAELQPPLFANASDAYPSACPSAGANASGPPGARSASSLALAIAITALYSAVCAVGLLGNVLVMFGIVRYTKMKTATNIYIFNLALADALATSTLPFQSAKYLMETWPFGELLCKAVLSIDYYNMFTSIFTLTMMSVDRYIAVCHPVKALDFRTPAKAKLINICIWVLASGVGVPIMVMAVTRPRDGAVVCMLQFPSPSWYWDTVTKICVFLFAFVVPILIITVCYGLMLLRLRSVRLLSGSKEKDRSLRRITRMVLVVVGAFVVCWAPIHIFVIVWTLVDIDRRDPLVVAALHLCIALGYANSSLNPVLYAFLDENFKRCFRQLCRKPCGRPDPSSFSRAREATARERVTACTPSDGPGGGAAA
Sequence of Mitogen-activated protein kinase kinase kinase 11 (Homo sapiens) (Q16584 whole entry, looked up): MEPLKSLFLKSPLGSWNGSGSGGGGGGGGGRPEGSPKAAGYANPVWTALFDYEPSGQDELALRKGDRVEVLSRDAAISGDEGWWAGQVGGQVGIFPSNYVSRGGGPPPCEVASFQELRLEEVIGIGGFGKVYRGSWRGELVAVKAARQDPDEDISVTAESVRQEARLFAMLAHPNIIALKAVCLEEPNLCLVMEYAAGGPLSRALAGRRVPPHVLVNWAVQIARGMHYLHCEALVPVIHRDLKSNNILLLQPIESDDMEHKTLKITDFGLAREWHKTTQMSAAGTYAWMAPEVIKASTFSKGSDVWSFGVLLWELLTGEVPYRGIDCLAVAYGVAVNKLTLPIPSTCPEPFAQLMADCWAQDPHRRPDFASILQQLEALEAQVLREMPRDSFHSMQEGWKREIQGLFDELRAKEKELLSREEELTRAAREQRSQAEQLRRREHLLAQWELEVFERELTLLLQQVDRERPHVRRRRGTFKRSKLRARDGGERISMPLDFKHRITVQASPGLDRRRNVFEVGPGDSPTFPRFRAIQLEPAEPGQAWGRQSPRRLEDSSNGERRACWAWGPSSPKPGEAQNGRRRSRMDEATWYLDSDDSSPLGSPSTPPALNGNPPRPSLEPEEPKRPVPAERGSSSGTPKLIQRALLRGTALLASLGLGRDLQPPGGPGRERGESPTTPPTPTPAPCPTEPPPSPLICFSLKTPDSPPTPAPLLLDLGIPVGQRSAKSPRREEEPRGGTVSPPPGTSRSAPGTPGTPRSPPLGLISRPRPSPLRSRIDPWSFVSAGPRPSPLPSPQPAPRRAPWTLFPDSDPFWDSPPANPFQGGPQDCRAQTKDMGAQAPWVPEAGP
Sequence of 5'-AMP-activated protein kinase catalytic subunit alpha-1 (Homo sapiens) (Q13131 whole entry, looked up): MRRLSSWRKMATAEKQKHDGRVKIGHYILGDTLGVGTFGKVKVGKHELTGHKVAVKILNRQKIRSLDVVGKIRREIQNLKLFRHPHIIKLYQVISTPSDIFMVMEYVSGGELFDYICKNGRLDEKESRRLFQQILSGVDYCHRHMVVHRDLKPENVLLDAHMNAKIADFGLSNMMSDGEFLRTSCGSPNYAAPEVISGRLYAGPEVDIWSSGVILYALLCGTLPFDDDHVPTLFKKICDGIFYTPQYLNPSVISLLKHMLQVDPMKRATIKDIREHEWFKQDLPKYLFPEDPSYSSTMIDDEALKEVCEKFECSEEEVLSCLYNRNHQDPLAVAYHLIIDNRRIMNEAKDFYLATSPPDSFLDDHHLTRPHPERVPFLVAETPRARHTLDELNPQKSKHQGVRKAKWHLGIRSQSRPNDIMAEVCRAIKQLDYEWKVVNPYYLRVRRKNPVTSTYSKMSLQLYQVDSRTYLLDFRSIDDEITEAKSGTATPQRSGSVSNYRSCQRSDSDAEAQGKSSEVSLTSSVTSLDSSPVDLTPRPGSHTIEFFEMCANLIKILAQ

Compound: CN(C)c1ncnc(-c2ccc3nc(Nc4cc(CN5CCN(C(=O)CC(F)(F)F)CC5)ccn4)[nH]c3c2)c1Cl [BAY-440]
- residual activity [1, 46]: 84%
- residual activity [2, 46]: 100%
- residual activity [3, 46]: 98%
- residual activity [4, 46]: 100%
- residual activity [5, 46]: 100%
- inhibition [6]: 2.06%
- residual activity [7, 46]: 86%
- inhibition [8]: 23.9%
- residual activity [9, 46]: 46%
- residual activity [10, 46]: 54%
- residual activity [11, 46]: 92%
- residual activity [12, 46]: 100%
- residual activity [13, 46]: 88%
- residual activity [14, 46]: 89%
- residual activity [15, 46]: 86%
- residual activity [16, 46]: 88%
- residual activity [17, 46]: 88%
- residual activity [18, 46]: 100%
- residual activity [19, 46]: 86%
- residual activity [20, 46]: 15%
- inhibition [21]: 10.6%
- residual activity [22, 46]: 99%
- pKi [23]: 5.66
- residual activity [24, 46]: 100%
- residual activity [25, 46]: 29%
- residual activity [26, 46]: 93%
- residual activity [27, 46]: 100%
- residual activity [28, 46]: 62%
- residual activity [29, 46]: 96%
- residual activity [30, 46]: 100%
- residual activity [31, 46]: 59%
- residual activity [32, 46]: 81%
- residual activity [33, 46]: 100%
- residual activity [34, 46]: 100%
- residual activity [35, 46]: 73%
- inhibition [36]: 4.83%
- residual activity [37, 46]: 34%
- residual activity [38, 46]: 97%
- residual activity [39, 46]: 51%
- residual activity [40, 46]: 100%
- residual activity [41, 46]: 88%
- residual activity [42, 46]: 100%
- residual activity [43, 46]: 85%
- residual activity [44, 46]: 100%
- residual activity [45, 46]: 100%

Compound: C[C@H](c1ccnc(Nc2nc3ccc(-c4cc(N(C)C)ncn4)cc3[nH]2)c1)N1CCN(C(=O)CC(F)(F)F)CC1 [BAY-985]
- residual activity [1, 47]: 100%
- residual activity [2, 47]: 95%
- residual activity [3, 47]: 85%
- residual activity [4, 47]: 100%
- residual activity [5, 47]: 82%
- inhibition [6]: 29%
- residual activity [7, 47]: 100%
- inhibition [8]: -8.4%
- residual activity [9, 47]: 100%
- residual activity [10, 47]: 86%
- residual activity [11, 47]: 100%
- residual activity [12, 47]: 92%
- residual activity [13, 47]: 100%
- residual activity [14, 47]: 76%
- residual activity [15, 47]: 85%
- residual activity [16, 47]: 100%
- residual activity [17, 47]: 88%
- residual activity [18, 47]: 82%
- residual activity [19, 47]: 100%
- residual activity [20, 47]: 64%
- inhibition [21]: 5.66%
- residual activity [22, 47]: 82%
- pKi [23]: 5.94
- Ki ([23]; read-out: pKi (converted)): 1120 nM
- residual activity [24, 47]: 100%
- residual activity [25, 47]: 100%
- residual activity [26, 47]: 92%
- residual activity [27, 47]: 92%
- residual activity [28, 47]: 74%
- residual activity [29, 47]: 76%
- residual activity [30, 47]: 100%
- residual activity [31, 47]: 92%
- residual activity [32, 47]: 56%
- residual activity [33, 47]: 96%
- residual activity [34, 47]: 80%
- residual activity [35, 47]: 94%
- inhibition [36]: 24.7%
- residual activity [37, 47]: 40%
- residual activity [38, 47]: 96%
- residual activity [39, 47]: 89%
- residual activity [40, 47]: 99%
- residual activity [41, 47]: 100%
- residual activity [42, 47]: 100%
- residual activity [43, 47]: 100%
- residual activity [44, 47]: 100%
- residual activity [45, 47]: 83%
